Reference: patent US20250205265A1, “ASPERULOSIDE AS AN AGENT FOR IMPROVING VASCULAR AND METABOLIC FUNCTION IN OBESITY: ROLE OF NRF2 ACTIVATION” (The Chinese University of Hong Kong, priority 2023, published 2025)
“Also recorded” adds a separate entry of the source.

Assays:
[1] = system: Cpt1α, Cpt1β, mitochondrial complex, Pgc1α; assay: Real-time PCR of mitochondrial genes in obese mice livers; assay type: in vivo
Protocol: (§1) After induction of obesity in C57BL/6 male mice fed with the high-fat diet for twelve weeks, they were treated daily with ASP (50 mg/kg) via oral gavage for seven weeks in vivo study. C57BL/6 mice aortae were used for ex vivo studies. Endothelial cells, HepG2 and primary adipocytes were used for in vitro studies. Vascular function was determined by wire myograph. H&E staining was employed for histological examination. Oil Red O staining was used to determine lipid droplets in tissues and cells. DHE and MitoSOX staining were used to detect ROS levels. QPCR, aortic en-face immunofluorescence staining, and Western blotting were used to analyze mRNA and protein expressions. ARE binding activity was determined by Dual luciferase reporter assay. Small interfering (si)RNA of Nrf2 and HO-1, inhibitors of Nrf2 (ML385, Cat. No.: HY-100523) and HO-1 (OB-24, HY-118487) were used to elucidate the mechanistic pathway of ASP's action.

[2] = system: C57BL/6 mice aortae; assay: Ex vivo wire myograph, IL-1β-impaired EDRs in mouse aortas; details: for EDRs: IL-1β
Protocol: (§2) After induction of obesity in C57BL/6 male mice fed with high fat diet for twelve weeks, they were treated daily with ASP (50 mg/kg) via oral gavage for seven weeks in vivo study. C57BL/6 mice aortae were used for ex vivo study and endothelial cells were used for in vitro study. Vascular function was determined by wire myograph. DHE and MitoSOX staining were used to detect ROS levels. QPCR, aortic en-face immunofluorescence staining, and Western blotting were used to analyze mRNA and protein expressions. Small interfering (si)RNA of Nrf2 and HO-1, inhibitors of Nrf2 (ML385, Cat. No.: HY-100523) and HO-1 (OB-24, HY-118487) were used to elucidate the mechanistic pathway of ASP's action.
as §1

[3] = system: lipid droplets in obese mice livers; assay: H&E and Oil Red O staining of obese mice livers; assay type: in vivo; details: ASP 50 mg/kg oral gavage daily for seven weeks
Protocol: as §1

[4] = system: HepG2 cells; assay: DHE staining of palmitic acid-treated HepG2 cells; assay type: cell-based; details: Nrf2-inhibited HepG2 cells
Protocol: as §1

[5] = system: VCAM-1 and ICAM-1; assay: Endothelial activation (VCAM-1 and ICAM-1) in endothelial cells; assay type: cell-based
Protocol: as §2
as §1, with “QPCR, aortic en-face immunofluorescence staining, and Western blotting were used to analyze mRNA and protein expressions.” left out, “Small interfering (si)RNA of Nrf2 and HO-1, inhibitors of Nrf2 (ML385, Cat. No.: HY-100523) and HO-1 (OB-24, HY-118487) were used to elucidate the mechanistic pathway of ASP's action.” left out

[6] = system: Nrf2/ARE; assay: Dual-luciferase assay of ARE binding in PA-treated HepG2 cells; assay type: cell-based
Protocol: as §1

[7] = system: Nrf2/antioxidant responsive element (ARE); assay: ARE binding activity, luciferase reporter assay in endothelial cells; assay type: cell-based; details: for endothelial Nrf2/ARE binding, higher than the binding to impaired endothelial cells: worded as embodiment, cf. FIG. 3D
Protocol: as §1

[8] = system: HO-1, SIRT1, SIRT6, and SOD2; assay: Real-time PCR of Nrf2 downstream genes in PA-treated HepG2 cells; assay type: cell-based
Protocol: as §1

[9] = system: adipose tissues of obese mice; assay: Real-time PCR of adipose tissues of obese mice; assay type: in vivo
Protocol: as §1

[10] = 250 μmol/L PA-treated HepG2 cells for 16 hours
[11] = perirenal adipose tissues in obese mice
[12] = visceral adipose tissues in obese mice

Question: Asperuloside was tested. Which “mRNA expressions of Cpt1α, Cpt1β, mitochondrial complex, and Pgc1α” value [1] did it give?
Answer: The value was “reverses these impairments”.

Question: And the EDRs ([2]; ML385-treated aortas)?
Answer: The EDRs was “fails to reverse impairment”.

Question: What about the EDRs ([2]; endothelial-cell specific Nrf2 knockdown murine aortas) of the same substance?
Answer: The EDRs was “fails to reverse the impairment”.

Question: What about the “acetylcholine-induced EDRs” value ([2]; IL-1β-treated aortas, ex vivo) of the same substance?
Answer: Its value is “prevents IL-1-induced impairment in acetylcholine-induced EDRs; also recorded: prevents IL-1β-impaired EDRs; also recorded: rescued IL-1β-impairs EDRs”.

Question: And the “acetylcholine-induced EDRs” value ([2]; IL-1β-treated, HO-1-inhibited (OB-24) aortas)?
Answer: Its value is “fails to rescue the impairment; also recorded: failed to prevent endothelial dysfunction in HO-1 inhibited aortae”.

Question: And the “accumulated lipid droplets (H&E, Oil Red O)” value [3]?
Answer: Its value is “attenuates obesity-induced accumulated lipid droplets”.

Question: And the “palmitic acid-induced oxidative stress (DHE staining)” value [4]?
Answer: Its value is “fails to attenuate palmitic acid-induced oxidative stress”.

Question: What about the endothelial activation ([5]; HO-1-silencing (HO-1-siRNA transfected) endothelial cells) of the same substance?
Answer: Its endothelial activation is “fails to decrease ROS level (FIG. 2E) or inhibit endothelial activation; also recorded: failed to prevent endothelial dysfunction in HO-1 inhibited aortae (FIGS. 2A-2D) and HO-1-siRNA transfected endothelial cells”.

Question: And the “overexpression of VCAM-1 and ICAM-1” value ([5]; endothelial cells)?
Answer: Its value is “inhibits overexpression of VCAM-1 and ICAM-1”.

Question: And the “binding activity of ARE” value [6, 10]?
Answer: Its value is “dose-dependently increases the binding activity of ARE”.

Question: What about the “increase of Nrf2/ARE binding” value ([6]; palmitic acid-impaired HepG2 cells, worded as embodiment, cf. FIG. 13E) of the same substance?
Answer: Its value is “about 2 fold”.

Question: What about the “endothelial Nrf2/ARE binding, higher than the binding to impaired endothelial cells” value (“endothelial Nrf2/ARE binding” below) ([7]; 10 μm ASP) of the same substance?
Answer: The value was “about 50%”.

Question: What about the “endothelial Nrf2/ARE binding” value ([7]; 20 μm ASP) of the same substance?
Answer: The value was roughly 60%.

Question: What about the “endothelial Nrf2/ARE binding” value ([7]; 40 μm ASP) of the same substance?
Answer: Its value is roughly 70%.

Question: What about the ARE binding activity ([7]; luciferase reporter assay) of the same substance?
Answer: Its ARE binding activity is “increased ARE binding activity”.

Question: What about the “mRNA expression of HO-1, SIRT1, SIRT6, and SOD2” value [8, 10] of the same substance?
Answer: The value was “dose-dependently increases mRNA expression of HO-1, SIRT1, SIRT6, and SOD2”.

Question: What about the “increase of HO-1 mRNA expression” value ([8]; palmitic acid-impaired HepG2 cells, cf. FIG. 13F) of the same substance?
Answer: The value was “at least 2 fold”.

Question: And the Cd36 upregulation ([9]; perirenal adipose tissues)?
Answer: Its Cd36 upregulation is “inhibited Cd36 upregulation”.

Question: And the Acox1 expression [9, 11]?
Answer: Its Acox1 expression is “increased”.

Question: What about the Nprc expression [9, 11] of the same substance?
Answer: The Nprc expression was “downregulates Nprc expression”.

Question: What about the “mRNA expression levels of Srebp1 and Acc2” value [9, 11] of the same substance?
Answer: The value was “decreases mRNA expression levels of Srebp1 (FIG. 15A) and Acc2”.

Question: And the “expression levels of Il-6 and Il-1β” value ([9]; perirenal adipose tissues of obese mice)?
Answer: The value was “reverses enhanced expression levels of Il-6 (FIG. 16A) and Il-1β”.

Question: And the Cd36 upregulation ([9]; subcutaneous adipose tissues)?
Answer: Its Cd36 upregulation is “inhibited Cd36 upregulation”.

Question: What about the Hsl expression ([9]; subcutaneous adipose tissues in obese mice) of the same substance?
Answer: The Hsl expression was “upregulates Hsl expression”.

Question: What about the “expression of F4/80” value ([9]; subcutaneous adipose tissues of obese mice) of the same substance?
Answer: Its value is “reverses the elevated expression of F4/80”.

Question: What about the Nprc expression [9, 12] of the same substance?
Answer: The Nprc expression was “decreased Nprc expression”.

Question: And the Tnfα expression [9, 12]?
Answer: The Tnfα expression was “decreases Tnfα expression”.

Question: And the “upregulation of Cd11c, Cd11b, and F4/80” value ([9]; visceral adipose tissues of obese mice)?
Answer: The value was “suppresses the upregulation of Cd11c (FIG. 20A), Cd11b (FIG. 20B), and F4/80”.
